The text below walks through data of patent publication US12410187B2, “Fused tricyclic compounds useful as anticancer agents” (ASTRAZENECA AB, priority 2019, dated 2025).

Read-outs that look alike come from different tables or passages of the source.

The target in data set [1] is T1, KRasG12C (Homo sapiens, UniProt P01116, G12C).
T1 construct: biotin (biotinylated); made in house
Description: KRasG12C functional assay (HTRF/FRET nucleotide exchange and Raf RBD binding). The settings on record: samples incubated for 4 hrs, FRET readout, single experiment or average of two or more. The class given is biochemical. The protocol: All enzyme and substrate solutions were prepared in assay buffer containing 20 mM HEPES (pH 7.5), 5 mM MgCl2, 150 mM NaCl, and 0.01% Tween 20. […] In a separate mix 20 nM GST-Raf Ras binding domain (GST-Raf RBD, purified in house) and 4 μg/ml anti-GST XL665 antibody (Cisbio) was prepared in assay buffer containing 50 mM Potassium Fluoride and 0.05 mg/ml BSA and equilibrated for 4 hours before adding 0.6 μM Guanosine 5′-[γ-thio]triphosphate (GTPγS, Sigma) and 0.08 μM SOS (purified in house). 5 μl of the GST-RAF RBD mix was then dispensed into each well of the assay plate. […] This is detected simultaneously via the specific binding interaction between active GTPγS KRas^G12C with GST-Raf RBD which brings the europium and XL665 into close proximity enabling an increased FRET signal to be detected on a Pherastar (BMG) plate reader equipped with the HTRF filter module. […] IC50 values were calculated from normalised dose-response response FRET data curve fitted in Genedata screener (Basel, Switzerland).
On the technique in general: In TR-FRET formats the signal depends on donor and acceptor labels being close together.

Data set [2] addresses T1, KRasG12C. The experiment in a line: KRasG12C mass spectrometry adducting assay. The class given is binding. As to conditions: test compound final concentration 10 μM, 4 hours reaction with 4 μM GDP loaded biotinylated KRasG12C. The protocol: Enzyme solutions were prepared in assay buffer containing 20 mM HEPES (pH 7.5), 5 mM MgCl2, and 150 mM NaCl. […] The plate was sealed before reading on a Xevo G2 QTOF (Waters) and Acquity LC system (Waters). 10 μl of sample was injected onto a Xbridge BEH300; C4; 3.5 um; 2.1×50 mm column (Waters) running a 3 minute gradient. Blank samples were run in between each test sample.
Data was analysed in Mass Lynx software (Waters), the Total ion count (TIC) trace was used and the eluted protein peak data combined. Using the combined spectrum the data was deconvoluted using MaxEnt1 method. The peak area for apo-protein KRas^G12C (APO) and KRAS+relative cmpd mass (adduct) were measured, and a percentage adduct was calculated using the following calculation: Percent adduct=100*(area of adduct peak/(sum of APO+adduct peaks).
The data from this mass spectrometry adducing assay is presented in the column labelled KRasG12C M.S. Binding Mean adduct % in Table A below.

Another data set has as its system MDR1 (Pgp) and BCRP. Description: Blood brain barrier penetrant assessment: efflux ratio in MDCK_MDR1_BCRP cells. The class given is in vitro ADME. As to conditions: human, MDCK cells doubly transfected with MDR1 (Pgp) and BCRP, ratio of 2 or less = potential for good BBB penetration, read-out: Hu MDCK-MDR1-BCRP (0.1 uM) Mean Efflux Ratio. The protocol: In order to evaluate blood brain barrier (BBB) penetrant properties the efflux properties of compounds according to the specification was measured in cells transfected with the major efflux pumps expressed in the endothelial cells of the BBB. The assessment of efflux properties was performed using Madin-Darby Canine Kidney (MDCK) cells doubly transfected with MDR1 (Pgp) and BCRP. The transfected cell line, MDCK_MDR1_BCRP, thus expresses the two main efflux pumps that actively serve to exclude transit of compounds across the BBB and the efflux ration from these cell can be measured as described in the literature (Durant et al, Sci. Adv. 2018; eeat:1719). A compound that has an efflux ratio of 2 or less as measured by this technique is identified as having the potential for good BBB penetrant properties (Colclough et al, Drug Disc. Today 2019; 24(5), 1067-73).

Setting [3] is: KRasG12C functional assay IC50, GDP loaded biotinylated KRasG12C.
Setting [4] is: GDP loaded biotinylated KRasG12C, read-out: KRasG12C functional assay IC50.

T1 sequence (P01116 1-188 isoform P01116-2 G12C): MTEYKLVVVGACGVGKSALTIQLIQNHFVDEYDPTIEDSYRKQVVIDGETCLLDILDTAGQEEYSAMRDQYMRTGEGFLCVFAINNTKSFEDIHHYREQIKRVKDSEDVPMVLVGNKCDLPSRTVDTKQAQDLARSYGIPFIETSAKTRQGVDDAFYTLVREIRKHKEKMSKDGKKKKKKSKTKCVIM

The molecule `C=CC(=O)N1CCN2Cc3cc(F)c(-c4c(C)cccc4O)c(F)c3OC[C@H]2C1` (single isomer, unassigned) [Example 45] had an IC50 on KRasG12C [1] (setting [3]) of 66 nM. Further, the “KRasG12C M.S. Binding Mean adduct %” value on KRasG12C [2] was 97%. Further, the efflux ratio at 0.1 uM with MDR1 (Pgp) and BCRP worked out at 1.3.

Consider `C=CC(=O)N1CCN2Cc3ccc(-c4c(C)ccc5[nH]ncc45)c(Cl)c3OC[C@H]2C1` (single isomer, unassigned) [Example 10], for which, at KRasG12C [1] (setting [3]), the IC50 was determined as 332 nM. The “KRasG12C M.S. Binding Mean adduct %” value at KRasG12C [2] turned out to be 97%.

On to `C#Cc1cc2c(c(Cl)c1-c1c(O)cccc1Cl)OC[C@H]1CN(C(=O)C=C)CCN1C2` [Example 78, 1-[(12aR)-10-Chloro-9-(2-chloro-6-hydroxyphenyl)-8-ethynyl-3,4,12,12a-tetrahydro-6H-pyrazino[2,1-c][1,4]benzoxazepin-2(1H)-yl]prop-2-en-1-one], for which the IC50 at KRasG12C [1] (setting [4]) amounted to 19.3 nM. For the same molecule, the efflux ratio at 0.1 uM in the data set on MDR1 (Pgp) and BCRP was 0.7.

For `C=CC(=O)N1CCN2Cc3ccc(-c4c(C)ccc5[nH]ncc45)c(Cl)c3OC[C@@H]2C1` (single isomer, unassigned) [Example 4], at KRasG12C [1] (setting [3]), the IC50 was determined as 74000 nM. Moreover, the “KRasG12C M.S. Binding Mean adduct %” value on KRasG12C [2] came out at 0%. The efflux ratio at 0.1 uM in the data set with MDR1 (Pgp) and BCRP was determined as 0.9.

As to `C=CC(=O)N1CCN2Cc3cc(F)c(-c4c(O)cccc4C(F)(F)F)c(F)c3OC[C@H]2C1` (single isomer, unassigned) [Example 49], the IC50 on KRasG12C [1] (setting [4]) turned out to be 65 nM. Besides, in the data set with MDR1 (Pgp) and BCRP, the efflux ratio at 0.1 uM is 0.9.

On to `C=CC(=O)N1CCN2Cc3cc(F)c(-c4c(O)cccc4Cl)c(F)c3OC[C@H]2C1` (single isomer, unassigned) [Example 43], for which the IC50 at KRasG12C [1] (setting [3]) turned out to be 33 nM. For the same molecule, on KRasG12C [2], the “KRasG12C M.S. Binding Mean adduct %” value amounted to 95%. The efflux ratio at 0.1 uM in the data set on MDR1 (Pgp) and BCRP worked out at 0.7.

`C=CC(=O)N1CCN2Cc3cc(F)c(-c4c(O)cccc4Cl)c(F)c3OC[C@H]2C1` (single isomer, unassigned) [Example 42] yielded an IC50 on KRasG12C [1] (setting [3]) of 2610 nM. Also, the “KRasG12C M.S. Binding Mean adduct %” value on KRasG12C [2] is 12%.

At KRasG12C [1] (setting [3]), `C=CC(=O)N1CCN2Cc3ccc(-c4c(C)ccc5[nH]ncc45)c(Cl)c3OC[C@@H]2C1` (single isomer, unassigned) [Example 3] returned an IC50 of 1410 nM. On KRasG12C [2], the “KRasG12C M.S. Binding Mean adduct %” value turned out to be 80%.

Take `C=CC(=O)N1CCN2Cc3cc(C#CC)c(-c4c(O)cccc4Cl)c(F)c3OC[C@H]2C1` (single isomer, unassigned) [Example 86]: the IC50 at KRasG12C [1] (setting [3]) amounted to 15 nM. Also, the efflux ratio at 0.1 uM with MDR1 (Pgp) and BCRP was 0.9.

For the molecule `C#Cc1cc2c(c(Cl)c1-c1c(O)cccc1F)OC[C@H]1CN(C(=O)C=C)CCN1C2` (single isomer, unassigned) [Example 80], at KRasG12C [1] (setting [4]), the IC50 was determined as 83 nM. For the same molecule, the efflux ratio at 0.1 uM in the data set with MDR1 (Pgp) and BCRP turned out to be 0.7.

Consider `C=CC(=O)N1CCN2Cc3cc(F)c(-c4c(O)cccc4Cl)c(Cl)c3OC[C@H]2C1` (single isomer, unassigned) [Example 35], for which the IC50 at KRasG12C [1] (setting [4]) amounted to 42 nM. For the same molecule, the efflux ratio at 0.1 uM with MDR1 (Pgp) and BCRP was determined as 1.8.

`[2H]C([2H])([2H])Oc1nc2c(c(Cl)c1-c1c(O)cccc1Cl)OC[C@H]1CN(C(=O)C=C)CCN1C2` (single isomer, unassigned) [Example 112]: at KRasG12C [1] (setting [4]), the IC50 is 44 nM. In addition, the efflux ratio at 0.1 uM with MDR1 (Pgp) and BCRP was determined as 1.5.

Turning to `C=CC(=O)N1CCN2C(=O)c3cc(F)c(-c4c(O)cccc4F)c(Cl)c3OC[C@H]2C1` (single isomer, unassigned) [Example 11], the IC50 at KRasG12C [1] (setting [4]) came out at 67 nM. In addition, in the data set with MDR1 (Pgp) and BCRP, the efflux ratio at 0.1 uM came out at 0.5.

With `C#Cc1cc2c(c(F)c1-c1c(O)cccc1Cl)OC[C@H]1CN(C(=O)C=C)CCN1C2` (single isomer, unassigned) [Example 76], the IC50 on KRasG12C [1] (setting [3]) turned out to be 18.6 nM. Further, in the data set on MDR1 (Pgp) and BCRP, the efflux ratio at 0.1 uM came out at 0.8.

Consider `C=CC(=O)N1CCN2Cc3cc(Cl)c(-c4c(C)cccc4O)c(F)c3OC[C@H]2C1` (single isomer, unassigned) [Example 61], for which, on KRasG12C [1] (setting [4]), the IC50 stood at 27.7 nM. For the same molecule, in the data set on MDR1 (Pgp) and BCRP, the efflux ratio at 0.1 uM came to 0.3.

Molecule `C=CC(=O)N1CCN2C(=O)c3ccc(-c4c(C)ccc5[nH]ncc45)c(Cl)c3OC[C@H]2C1` (single isomer, unassigned) [Example 8] yielded an IC50 at KRasG12C [1] (setting [3]) of 698 nM. On KRasG12C [2], the “KRasG12C M.S. Binding Mean adduct %” value amounted to 91%.

In the case of `C=CC(=O)N1CCN2Cc3cc(F)c(-c4c(O)cccc4C(F)F)c(F)c3OC[C@H]2C1` (single isomer, unassigned) [Example 53], the IC50 on KRasG12C [1] (setting [4]) was found to be 660 nM. Moreover, in the data set on MDR1 (Pgp) and BCRP, the efflux ratio at 0.1 uM was found to be 1.5.

The term IC50 denotes the midpoint of a concentration-inhibition curve.
